Laboratory results from US20170190671A1, “BIS(ARYL)CATECHOL DERIVATIVES AS HERBICIDES” (E I DU PONT DE NEMOURS AND COMPANY, priority 2014, published 2017).

Key:
Type in all cases: in vivo
[1] = test system: velvetleaf (Abutilon theophrasti); assay: Test C postemergence; conditions: Abutilon theophrasti, post-emergence, Postemergence, scale 0 to 100, read-out: Plant response rating, Velvetleaf
Source text: (§1) Seeds of plant species selected from blackgrass (Alopecurus myosuroides), Italian ryegrass (Lolium multiflorum), winter wheat (Triticum aestivum), galium (catchweed bedstraw, Galium aparine), corn (Zea mays), large (Lg) crabgrass (Digitaria sanguinalis), giant foxtail (Setaria faberii), johnsongrass (Sorghum halepense), lambsquarters (Chenopodium album), morningglory (Ipomoea coccinea), yellow nutsedge (Cyperus esculentus), pigweed (Amaranthus retroflexus), ragweed (common ragweed, Ambrosia elatior), soybean (Glycine max), barnyardgrass (Echinochloa crus-galli), oilseed rape (Brassica napus), waterhemp (common waterhemp, Amaranthus rudis), and velvetleaf (Abutilon theophrasti) were planted into a blend of loam soil and sand and treated preemergence with test chemicals formulated in a non-phytotoxic solvent mixture which included a surfactant.
(§2) At the same time, plants selected from these crop and weed species and also chickweed (common chickweed, Stellaria media), kochia (Kochia scoparia), and wild oat (Avena fatua), were planted in pots containing Redi-Earth® planting medium (Scotts Company, 14111 Scottslawn Road, Marysville, Ohio 43041) comprising spaghnum peat moss, vermiculite, wetting agent and starter nutrients and treated with postemergence applications of test chemicals formulated in the same manner. Plants ranged in height from 2 to 18 cm (1- to 4-leaf stage) for postemergence treatments. Treated plants and controls were maintained in a greenhouse for 13 to 15 days, after which time all species were compared to controls and visually evaluated. Plant response ratings, summarized in Table C, are based on a scale of 0 to 100 where 0 is no effect and 100 is complete control. A dash (-) response means no test result.

[2] = test system: chickweed (common chickweed, Stellaria media); assay: Test C postemergence; conditions: Stellaria media, post-emergence, Postemergence, scale 0 to 100, read-out: Plant response rating, Chickweed
Source text: as §1, §2

[3] = test system: yellow nutsedge (Cyperus esculentus); assay: Test C postemergence; conditions: Cyperus, post-emergence, 336 h, Postemergence, scale 0 to 100, read-out: Plant response rating, Nutsedge, Yellow
Source text: as §1, §2

[4] = test system: blackgrass (Alopecurus myosuroides); assay: Test C postemergence; conditions: Alopecurus myosuroides, post-emergence, 336 h, Postemergence, scale 0 to 100, read-out: Plant response rating, Blackgrass
Source text: as §1, §2

[5] = test system: lambsquarters (Chenopodium album); assay: Test C postemergence; conditions: Chenopodium album, post-emergence, 336 h, Postemergence, scale 0 to 100, read-out: Plant response rating, Lambsquarters
Source text: as §1, §2

[6] = test system: giant foxtail (Setaria faberii); assay: Test C postemergence; conditions: Setaria faberi, post-emergence, 336 h, Postemergence, scale 0 to 100, read-out: Plant response rating, Foxtail, Giant
Source text: as §1, §2

[7] = test system: winter wheat (Triticum aestivum); assay: Test C preemergence; conditions: Triticum aestivum, pre-emergence, 336 h, scale 0 to 100, read-out: Plant response rating, Wheat
Outline: (§3)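 Visual ratings were made 13-15 days after treatment in the greenhouse, scored 0-100 against controls, where 100 means complete control. Treatments used a surfactant-containing non-phytotoxic solvent formulation, applied preemergence to seeds in loam-sand soil or postemergence to 2-18 cm plants (1-4 leaves) in peat-based medium.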

[8] = test system: Italian ryegrass (Lolium multiflorum); assay: Test C preemergence; conditions: Lolium multiflorum, pre-emergence, 336 h, scale 0 to 100, read-out: Plant response rating, Ryegrass, Italian
Outline: as §3

[9] = test system: morningglory (Ipomoea coccinea); assay: Test C preemergence; conditions: Ipomoea, pre-emergence, 336 h, scale 0 to 100, read-out: Plant response rating, Morningglory
Outline: as §3

[10] = test system: pigweed (Amaranthus retroflexus); assay: Test C preemergence; conditions: Amaranthus retroflexus, pre-emergence, 336 h, scale 0 to 100, read-out: Plant response rating, Pigweed
Outline: as §3

[11] = test system: velvetleaf (Abutilon theophrasti); assay: Test C preemergence; conditions: Abutilon theophrasti, pre-emergence, scale 0 to 100, read-out: Plant response rating, Velvetleaf
Outline: as §3

soybean (Glycine max) = assay: Test C preemergence; conditions: Glycine max, pre-emergence; 31 g ai/ha, preemergence; scale 0 to 100; read-out: Plant response rating, Soybean
Outline: as §3

For `N#Cc1cccc(Oc2ncc(Cl)cn2)c1Oc1ncc(Br)cn1` [Compound 4, 2-[(5-bromo-2-pyrimidinyl)oxy]-3-[(5-chloro-2-pyrimidinyl)oxy]benzonitrile], which pest or weed control at 31 g/ha ([1]; 31 g ai/ha) is on record?
The pest or weed control at 31 g/ha was 40%.

What about the pest or weed control at 62 g/ha ([1]; 62 g ai/ha) of the same compound?
The pest or weed control at 62 g/ha was 50%.

And the pest or weed control at 125 g/ha ([1]; 125 g ai/ha)?
Its pest or weed control at 125 g/ha is 60%.

What about the pest or weed control at 16 g/ha ([2]; 16 g ai/ha) of the same compound?
Its pest or weed control at 16 g/ha is 20%.

What about the pest or weed control at 31 g/ha ([2]; 31 g ai/ha) of the same compound?
Its pest or weed control at 31 g/ha is 40%.

What about the pest or weed control at 62 g/ha ([2]; 62 g ai/ha) of the same compound?
The pest or weed control at 62 g/ha was 50%.

And the pest or weed control at 125 g/ha ([2]; 125 g ai/ha)?
Its pest or weed control at 125 g/ha is 80%.

And the pest or weed control at 31 g/ha ([3]; 31 g ai/ha)?
The pest or weed control at 31 g/ha was 0%.

What about the pest or weed control at 62 g/ha ([3]; 62 g ai/ha) of the same compound?
The pest or weed control at 62 g/ha was 10%.

What about the pest or weed control at 125 g/ha ([3]; 125 g ai/ha) of the same compound?
The pest or weed control at 125 g/ha was 10%.

And the pest or weed control at 16 g/ha ([4]; 16 g ai/ha)?
The pest or weed control at 16 g/ha was 0%.

What about the pest or weed control at 31 g/ha ([4]; 31 g ai/ha) of the same compound?
Its pest or weed control at 31 g/ha is 0%.

What about the pest or weed control at 62 g/ha ([4]; 62 g ai/ha) of the same compound?
Its pest or weed control at 62 g/ha is 0%.

And the pest or weed control at 125 g/ha ([4]; 125 g ai/ha)?
The pest or weed control at 125 g/ha was 10%.

What about the pest or weed control at 16 g/ha ([5]; 16 g ai/ha) of the same compound?
The pest or weed control at 16 g/ha was 30%.

And the pest or weed control at 31 g/ha ([5]; 31 g ai/ha)?
The pest or weed control at 31 g/ha was 70%.

And the pest or weed control at 62 g/ha ([5]; 62 g ai/ha)?
Its pest or weed control at 62 g/ha is 80%.

And the pest or weed control at 125 g/ha ([5]; 125 g ai/ha)?
Its pest or weed control at 125 g/ha is 90%.

And the pest or weed control at 16 g/ha ([6]; 16 g ai/ha)?
The pest or weed control at 16 g/ha was 40%.

And the pest or weed control at 31 g/ha ([6]; 31 g ai/ha)?
The pest or weed control at 31 g/ha was 40%.

And the pest or weed control at 62 g/ha ([6]; 62 g ai/ha)?
Its pest or weed control at 62 g/ha is 45%.

What about the pest or weed control at 125 g/ha ([6]; 125 g ai/ha) of the same compound?
Its pest or weed control at 125 g/ha is 35%.

And the plant injury at 31 g/ha ([7]; 31 g ai/ha, preemergence)?
Its plant injury at 31 g/ha is 0%.

And the plant injury at 62 g/ha ([7]; 62 g ai/ha, preemergence)?
The plant injury at 62 g/ha was 0%.

What about the plant injury at 125 g/ha ([7]; 125 g ai/ha, preemergence) of the same compound?
Its plant injury at 125 g/ha is 5%.

What about the plant injury at 16 g/ha ([7]; Preemergence, 16 g ai/ha) of the same compound?
Its plant injury at 16 g/ha is 0%.

What about the pest or weed control at 31 g/ha ([8]; 31 g ai/ha, preemergence) of the same compound?
The pest or weed control at 31 g/ha was 5%.

What about the pest or weed control at 62 g/ha ([8]; 62 g ai/ha, preemergence) of the same compound?
Its pest or weed control at 62 g/ha is 45%.

What about the pest or weed control at 125 g/ha ([8]; 125 g ai/ha, preemergence) of the same compound?
The pest or weed control at 125 g/ha was 70%.

What about the pest or weed control at 16 g/ha ([8]; Preemergence, 16 g ai/ha) of the same compound?
Its pest or weed control at 16 g/ha is 0%.

And the pest or weed control at 31 g/ha ([9]; 31 g ai/ha, preemergence)?
The pest or weed control at 31 g/ha was 35%.

What about the pest or weed control at 62 g/ha ([9]; 62 g ai/ha, preemergence) of the same compound?
Its pest or weed control at 62 g/ha is 55%.

And the pest or weed control at 125 g/ha ([9]; 125 g ai/ha, preemergence)?
The pest or weed control at 125 g/ha was 98%.

What about the pest or weed control at 16 g/ha ([9]; Preemergence, 16 g ai/ha) of the same compound?
The pest or weed control at 16 g/ha was 5%.

And the pest or weed control at 31 g/ha ([10]; 31 g ai/ha, preemergence)?
Its pest or weed control at 31 g/ha is 100%.

What about the pest or weed control at 62 g/ha ([10]; 62 g ai/ha, preemergence) of the same compound?
The pest or weed control at 62 g/ha was 70%.

And the pest or weed control at 125 g/ha ([10]; 125 g ai/ha, preemergence)?
The pest or weed control at 125 g/ha was 100%.

What about the pest or weed control at 16 g/ha ([10]; Preemergence, 16 g ai/ha) of the same compound?
Its pest or weed control at 16 g/ha is 5%.

What about the pest or weed control at 31 g/ha ([11]; 31 g ai/ha, preemergence) of the same compound?
Its pest or weed control at 31 g/ha is 45%.

And the pest or weed control at 62 g/ha ([11]; 62 g ai/ha, preemergence)?
The pest or weed control at 62 g/ha was 55%.

And the pest or weed control at 125 g/ha ([11]; 125 g ai/ha, preemergence)?
The pest or weed control at 125 g/ha was 100%.

And the pest or weed control at 16 g/ha ([11]; Preemergence, 16 g ai/ha)?
The pest or weed control at 16 g/ha was 5%.

And the plant injury at 31 g/ha (soybean (Glycine max))?
Its plant injury at 31 g/ha is 30%.
